Measured values reported in ChEMBL document CHEMBL6092215, “A Prostate-Specific Membrane Antigen-Targeting Small Molecule-Drug Conjugate Strategy to Overcome the Hematological Toxicity of Olaparib” (J Med Chem, 2024).
Active and inactive are the calls of the source. No cut-off for these calls is given here.

Key:
[1] = Antiproliferative activity against PSMA negative human RWPE-1 cells assessed as effect on cell viability incubated for 72 hrs by MTT assay; format: toxicity, cell-based; conditions: RWPE-1 cells (PSMA negative)
[2] = AUC (0 to infinity) in Sprague-Dawley rat at 5 mg/kg, iv measured after 24 hrs by UPLC-MS/MS analysis; format: ADME, organism-based; conditions: in vivo
PC-3 = assay: Antiproliferative activity against PSMA negative human PC-3 cells assessed as effect on cell viability incubated for 72 hrs by MTT assay; format: functional
[3] = Drug uptake in PSMA positive human 22Rv1 cells at 10 uM measured after 1 to 6 hrs by LC-MS/MS analysis; format: ADME, cell-based; conditions: cwr22r, time 1-6 hrs
CWR22R [4] = assay: Induction of apoptosis in human 22Rv1 cells assessed as increase in cleaved caspase-3 expression at 100 uM incubated for 72 hrs by Western blot analysis; format: functional, cell-based
[5] = Subacute toxicity in male ICR mouse assessed as decrease in WBC at 175 mg/kg, po administered via gavage for 30 days by blood routine test; format: organism-based; conditions: in vivo, 720 h, time 30 day
[6] = Oral bioavailability in Sprague-Dawley rat at 100 mg/kg measured after 24 hrs by UPLC-MS/MS analysis; format: ADME, organism-based; conditions: in vivo
[7] = Subacute toxicity in male ICR mouse assessed as decrease in hemoglobin at 175 mg/kg, po administered via gavage for 30 days by blood routine test; format: organism-based; conditions: in vivo, 720 h, time 30 day
[8] = Subacute toxicity in male ICR mouse assessed as decrease in neutrophils at 175 mg/kg, po administered via gavage for 30 days by blood routine test; format: organism-based; conditions: in vivo, 720 h, time 30 day
[9] = Volume of distribution in Sprague-Dawley rat at 5 mg/kg, iv measured after 24 hrs by UPLC-MS/MS analysis; format: ADME, organism-based; conditions: in vivo
[10] = Subacute toxicity in male ICR mouse assessed as decrease in lymphocytes at 175 mg/kg, po administered via gavage for 30 days by blood routine test; format: organism-based; conditions: in vivo, 720 h, time 30 day
CWR22R [11] = assay: Antiproliferative activity against human 22Rv1 cells assessed as reduction in cell viability at 125 uM in presence of DUPA; format: functional, cell-based
CWR22R [12] = assay: Antiproliferative activity against human 22Rv1 cells with high PSMA expression assessed as effect on cell viability incubated for 72 hrs by MTT assay; format: functional, cell-based; conditions: 22Rv1, 72 h
[13] = C0 in Sprague-Dawley rat at 5 mg/kg, iv measured after 24 hrs by UPLC-MS/MS analysis; format: ADME, organism-based; conditions: in vivo
[14] = Subacute toxicity in male ICR mouse assessed as decrease in body weight at 175 mg/kg, po administered via gavage for 30 days; format: organism-based; conditions: in vivo, 720 h, time 30 day
[15] = Clearance in Sprague-Dawley rat at 5 mg/kg, iv measured after 24 hrs by UPLC-MS/MS analysis; format: ADME, organism-based; conditions: in vivo
[16] = Drug uptake in PSMA positive human 22Rv1 cells at 10 uM measured after 1 to 6 hrs in presence of PSMA ligand DUPA by LC-MS/MS analysis; format: ADME, cell-based; conditions: cwr22r, time 1-6 hrs
[17] = Cmax in Sprague-Dawley rat at 100 mg/kg, po measured after 24 hrs by UPLC-MS/MS analysis; format: ADME, organism-based; conditions: in vivo
CWR22R [18] = assay: Induction of DNA damage in human 22Rv1 cells assessed as increase in number of gamma-H2AX foci incubated for 12 hrs by DAPI staining based immunofluorescence analysis; format: functional, cell-based; conditions: dose 50-200 µM
[19] = AUC (0 to t) in Sprague-Dawley rat at 100 mg/kg, po measured after 24 hrs by UPLC-MS/MS analysis; format: ADME, organism-based; conditions: in vivo
[20] = AUC (0 to infinity) in Sprague-Dawley rat at 100 mg/kg, po measured after 24 hrs by UPLC-MS/MS analysis; format: ADME, organism-based; conditions: in vivo
[21] = biological target: Poly [ADP-ribose] polymerase 1 (Homo sapiens, UniProt P09874); assay: Inhibition of PARP1 (unknown origin) by biotinylated NAD+-based luminescence assay
Sequence of Poly [ADP-ribose] polymerase 1 (P09874 whole entry): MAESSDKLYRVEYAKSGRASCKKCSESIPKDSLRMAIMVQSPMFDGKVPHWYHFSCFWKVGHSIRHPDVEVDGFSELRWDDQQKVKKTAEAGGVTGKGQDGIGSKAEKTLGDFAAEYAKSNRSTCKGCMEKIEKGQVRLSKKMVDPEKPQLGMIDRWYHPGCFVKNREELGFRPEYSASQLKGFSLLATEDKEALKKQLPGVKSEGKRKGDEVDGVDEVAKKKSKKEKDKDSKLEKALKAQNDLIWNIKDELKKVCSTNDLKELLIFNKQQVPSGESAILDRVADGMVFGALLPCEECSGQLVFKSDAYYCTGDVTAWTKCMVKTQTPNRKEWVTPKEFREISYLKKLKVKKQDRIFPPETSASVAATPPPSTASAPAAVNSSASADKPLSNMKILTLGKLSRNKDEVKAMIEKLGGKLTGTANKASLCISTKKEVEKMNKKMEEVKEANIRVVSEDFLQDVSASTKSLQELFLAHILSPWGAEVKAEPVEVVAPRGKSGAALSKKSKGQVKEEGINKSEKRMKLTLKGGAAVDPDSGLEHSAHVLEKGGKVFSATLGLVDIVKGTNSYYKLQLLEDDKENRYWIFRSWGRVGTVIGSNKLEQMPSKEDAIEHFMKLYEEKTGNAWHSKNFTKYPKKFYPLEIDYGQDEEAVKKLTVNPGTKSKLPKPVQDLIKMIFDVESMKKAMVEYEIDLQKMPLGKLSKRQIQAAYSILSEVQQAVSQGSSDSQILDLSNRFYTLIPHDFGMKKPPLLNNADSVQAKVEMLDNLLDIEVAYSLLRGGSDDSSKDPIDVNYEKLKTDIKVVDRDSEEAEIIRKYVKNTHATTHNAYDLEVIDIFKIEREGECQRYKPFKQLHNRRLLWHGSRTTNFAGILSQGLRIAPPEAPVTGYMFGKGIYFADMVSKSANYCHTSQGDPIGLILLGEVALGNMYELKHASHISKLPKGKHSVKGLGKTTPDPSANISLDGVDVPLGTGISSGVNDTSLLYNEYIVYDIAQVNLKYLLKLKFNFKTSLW

[22] = Tmax in Sprague-Dawley rat at 100 mg/kg, po measured after 24 hrs by UPLC-MS/MS analysis; format: ADME, organism-based; conditions: in vivo
CWR22R [23] = assay: Antitumor activity against human 22Rv1 cells xenografted in male BALB/c nude mouse assessed as tumor growth inhibition at 175 mg/kg administered via gavage relative to control; format: functional; conditions: 22Rv1, po, read-out: TGI
[24] = Subacute toxicity in male ICR mouse assessed as decrease in hematocrit at 175 mg/kg, po administered via gavage for 30 days by blood routine test; format: organism-based; conditions: in vivo, 720 h, time 30 day
[25] = Toxicity in male BALB/c nude mouse xenografted with human 22Rv1 cells assessed as decrease in body weight at 175 mg/kg administered via gavage; format: organism-based; conditions: in vivo, po
[26] = Half-life in Sprague-Dawley rat at 100 mg/kg, po measured after 24 hrs by UPLC-MS/MS analysis; format: ADME, organism-based; conditions: in vivo
LNCaP = assay: Antiproliferative activity against human LNCaP cells with high PSMA expression assessed as effect on cell viability incubated for 72 hrs by MTT assay; format: functional, cell-based
[27] = AUC (0 to t) in Sprague-Dawley rat at 5 mg/kg, iv measured after 24 hrs by UPLC-MS/MS analysis; format: ADME, organism-based; conditions: in vivo
CWR22R [28] = assay: Antitumor activity against human 22Rv1 cells xenografted in male BALB/c nude mouse at 175 mg/kg administered via gavage; format: functional, organism-based
[29] = Half-life in Sprague-Dawley rat at 5 mg/kg, iv measured after 24 hrs by UPLC-MS/MS analysis; format: ADME, organism-based; conditions: in vivo
[30] = Subacute toxicity in male ICR mouse assessed as decrease in red blood cells at 175 mg/kg, po administered via gavage for 30 days by blood routine test; format: organism-based; conditions: in vivo, 720 h, time 30 day

AUC(0-inf) [2]: 7460 ng·h/mL
Drug uptake [3]: Active
bioavailability [6]: 11%
Vd [9]: 0.391 L/kg
C0 at 24 h [13]: 12800 ng/mL
clearance [15]: 12 mL/min/kg
Drug uptake [16]: Not_active
Cmax [17]: 5260 ng/mL
AUC(0-t) at 24 h [19]: 16300 ng·h/mL
AUC(0-inf) [20]: 16500 ng·h/mL
IC50 [21]: 0.0019 µM
Tmax [22]: 60 min
half-life [26]: 54.8 min
IC50 (LNCaP): 93.9 µM
AUC(0-t) at 24 h [27]: 7300 ng·h/mL
half-life [29]: 22.7 min
SMILES: O=C(O)CC[C@H](NC(=O)N[C@@H](CCCCNC(=O)CCC(=O)N1CCN(C(=O)c2cc(Cc3n[nH]c(=O)c4ccccc34)ccc2F)CC1)C(=O)O)C(=O)O
CC50 at 72 h [1]: > 1000 µM
CC50 (PC-3): > 1000 µM
Activity (CWR22R [4]): Active; Similar To Olaparib-Treated Group
Activity [5]: Non-toxic
Activity [7]: Non-toxic
Activity [8]: Non-toxic
Activity [10]: Non-toxic
Activity (CWR22R [11]): Not active; Drug Mode Of Action Appears To Be Via Binding To Psma Receptor
IC50 (CWR22R [12]): 133 µM
Activity [14]: Non-toxic
Activity (CWR22R [18]): Dose-dependent-effect
inhibition in vivo at 175 mg/kg (CWR22R [23]): 69%
Activity [24]: Non-toxic
Activity [25]: Non-toxic
Activity (CWR22R [28]): Active
Activity [30]: Non-toxic
